Reference: patent US10512635B2, “Uses of benzimidazole derivative for nocturnal acid breakthrough” (CJ HEALTHCARE CORPORATION, priority 2015, dated 2019)
Where “and” joins values, the source holds several entries; their conditions need not be identical. Identical values can stand only once.

System: gastric pH
Assay: Clinical trial: 24 h gastric pH monitoring after single night-time oral dose
Format: in vivo, human (healthy male volunteers)
Conditions: for % inhibition of IA / % inhibition of Time pH < 4: post-dose vs baseline; for % inhibition of IA / % inhibition of Time pH < 4 / IA (integrated acidity) / Median pH / Time pH > 4 (%) / Time pH > 6 (%): mean N=12; for IA (integrated acidity) / Median pH / Time pH > 4 (%) / Time pH > 6 (%): post-dose
Procedure: In order to evaluate the nocturnal acid breakthrough inhibiting effect of the compound of Chemical Formula 1 according to the present disclosure, clinical trials were designed by Randomized, Open-label, Single-dose, Balanced incomplete block crossover. A total of 24 trial subjects were enrolled for 12 sequences, with two trial subjects assigned per a sequence. All the trial subjects have completed the planned clinical trial schedule (FIG. 1 and Table 1).
Trial drugs were administered between P.M. 08:30 and P.M 10:30 together with 200 mL of water in a state where water intake was restricted 1 hour before the administration of the trial drugs. Investigator has instructed the trial subjects to take the trial drugs, and has observed the oral cavities of the trial subjects whether all the trial drugs were well taken. The trial subjects were restricted not to lie down for 3 hours after the administration of the trial drugs, but were not restricted when they must lie down or be semi-reclined during a clinical test procedure (for example, electrocardiogram examination). The trial subjects were to take a proper posture if any abnormal reaction occurs at any point.
The trial subjects were allowed to take a small amount of water (150 mL or less) in order to insert a pH sensor easily. The intake of drinking water and food was prohibited for 4 hours after the insertion of a pH sensor, and, particularly, the intake of water was restricted for 4 hours after the administration of the trial drugs (On the day before the administration (−1 D), for 4 hours after estimated drug administration time). After the trial subjects woke up next day, a small amount of water (about 50 mL) was provided to the trial subjects at 2 hour intervals during 12 to 24 hours after the administration of the trial drugs (On the day before the administration (−1 D), during 12 to 24 hours after estimated drug administration time), and the intake of water was not restricted during meal time. Meanwhile, standard meal was provided in the form of liquid meal or semi-liquid, and dinner was finished at least 3 hours before drug administration time (On the day before the administration (−1 D), estimated drug administration time). After dinner, an empty stomach state was maintained until breakfast next morning.
Specifically, for the analysis of […] parameters, the changes of average 15-min median gastric pH over time were monitored. The main […] parameters set forth above were calculated using the data of total 24 persons obtained by the monitoring of gastric pH. The time function of […] parameters was schematically was illustrated to calculate the […] parameters, and these […] parameters were summarized using descriptive statistics (arithmetic mean (mean), standard deviation (SD), coefficient of variation (CV (%)), sample size (N), minimum value (min), maximum value (max), and median value (median)).
Meanwhile, the monitoring of gastric pH was carried out as fellows. • Period 1: for each examination period, 24 h for −1 D (before administration), 24 h for each of 1 D and 7 D (after administration) • Period 2: 24 h for 1 D (after administration)

[1] = dexlansoprazole 60 mg (Comparative Example), 24 hours
[2] = dexlansoprazole 60 mg (Comparative Example), day-time (12-24 hours)
[3] = dexlansoprazole 60 mg (Comparative Example), night-time (0-12 hours)
[4] = Compound I 50 mg (Example 1), 24 hours
[5] = Compound I 50 mg (Example 1), day-time (12-24 hours)
[6] = Compound I 50 mg (Example 1), night-time (0-12 hours)
[7] = Compound I 100 mg (Example 2), 24 hours
[8] = Compound I 100 mg (Example 2), day-time (12-24 hours)
[9] = Compound I 100 mg (Example 2), night-time (0-12 hours)
[10] = Compound I 200 mg (two formulations of Example 2), 24 hours
[11] = Compound I 200 mg (two formulations of Example 2), day-time (12-24 hours)
[12] = Compound I 200 mg (two formulations of Example 2), night-time (0-12 hours)

Structure (SMILES): Cc1c(OCC(F)(F)F)ccnc1C[S@@+]([O-])c1nc2ccccc2[nH]1 [dexlansoprazole, reference compound]
- % inhibition of IA [1]: 64.66%
- % inhibition of Time pH < 4 [1]: 53.96%
- % inhibition of IA [2]: 97.01%
- % inhibition of Time pH < 4 [2]: 79.80%
- % inhibition of IA [3]: 44.06%
- % inhibition of Time pH < 4 [3]: 29.98%
- IA (integrated acidity) [1]: 719.54 mmol·h/L
- Median pH [1]: 4.98
- Time pH > 4 (%) [1]: 60.55%
- Time pH > 6 (%) [1]: 25.85%
- IA (integrated acidity) [2]: 22.89 mmol·h/L
- Median pH [2]: 5.56
- Time pH > 4 (%) [2]: 83.05% and 83.06%
- Time pH > 6 (%) [2]: 33.71%
- IA (integrated acidity) [3]: 696.55 mmol·h/L
- Median pH [3]: 2.55
- Time pH > 4 (%) [3]: 37.78%
- Time pH > 6 (%) [3]: 17.76%

Structure (SMILES): Cc1nc2c(OC3CCOc4cc(F)cc(F)c43)cc(C(=O)N(C)C)cc2[nH]1 (centres unmarked) [Compound I, 4-(5,7-difluorochroman-4-yloxy)-N,N,2-trimethyl-1H-benzo[d]imidazole-6-carboxamide]
- % inhibition of IA [4]: 78.18%
- % inhibition of Time pH < 4 [4]: 51.35%
- % inhibition of IA [5]: 62.64%
- % inhibition of Time pH < 4 [5]: 39.65%
- % inhibition of IA [6]: 83.98%
- % inhibition of Time pH < 4 [6]: 61.41%
- IA (integrated acidity) [4]: 355.02 mmol·h/L
- Median pH [4]: 4.57
- Time pH > 4 (%) [4]: 58.55%
- Time pH > 6 (%) [4]: 25.97%
- IA (integrated acidity) [5]: 184.29 mmol·h/L
- Median pH [5]: 4.08
- Time pH > 4 (%) [5]: 52.06%
- Time pH > 6 (%) [5]: 21.56%
- IA (integrated acidity) [6]: 170.73 mmol·h/L
- Median pH [6]: 4.98
- Time pH > 4 (%) [6]: 65.11%
- Time pH > 6 (%) [6]: 30.41%
- % inhibition of IA [7]: 88.78%
- % inhibition of Time pH < 4 [7]: 66.22%
- % inhibition of IA [8]: 90.74%
- % inhibition of Time pH < 4 [8]: 71.47%
- % inhibition of IA [9]: 88.68%
- % inhibition of Time pH < 4 [9]: 62.53%
- IA (integrated acidity) [7]: 229.60 mmol·h/L
- Median pH [7]: 5.10
- Time pH > 4 (%) [7]: 70.07%
- Time pH > 6 (%) [7]: 31.91%
- IA (integrated acidity) [8]: 67.72 mmol·h/L
- Median pH [8]: 5.10
- Time pH > 4 (%) [8]: 74.57%
- Time pH > 6 (%) [8]: 30.10%
- IA (integrated acidity) [9]: 161.88 mmol·h/L
- Median pH [9]: 5.01
- Time pH > 4 (%) [9]: 65.61%
- Time pH > 6 (%) [9]: 33.85%
- % inhibition of IA [10]: 93.45%
- % inhibition of Time pH < 4 [10]: 78.87%
- % inhibition of IA [11]: 97.41%
- % inhibition of Time pH < 4 [11]: 82.48%
- % inhibition of IA [12]: 91.17%
- % inhibition of Time pH < 4 [12]: 76.00%
- IA (integrated acidity) [10]: 141.62 mmol·h/L
- Median pH [10]: 5.90
- Time pH > 4 (%) [10]: 81.73%
- Time pH > 6 (%) [10]: 48.44%
- IA (integrated acidity) [11]: 25.51 mmol·h/L
- Median pH [11]: 5.62
- Time pH > 4 (%) [11]: 85.34%
- Time pH > 6 (%) [11]: 43.29%
- IA (integrated acidity) [12]: 116.11 mmol·h/L
- Median pH [12]: 6.00
- Time pH > 4 (%) [12]: 78.15%
- Time pH > 6 (%) [12]: 53.63%
- Time pH > 4 (%) (Compound I 200 mg (two formulations of Example 2), night-time (0-12 hours), listed as compound of Chemical Formula 1): 73.15%
- time after administration until average gastric pH reached 4 or higher (all dose groups (50 mg, 100 mg, and 200 mg), administered at night-time): ≤ 2 hours
